The supplement of paper PMC11061612

Tests used:
Assay in all cases: combination Emax (second highest fraction inhibited in the dose matrix, 72 h); higher = more inhibition; extreme values may be limits of the assay
ACHN (Kidney Carcinoma) = tested on: ACHN (Kidney Carcinoma)
Procedure, shortened: (§1)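 Cell lines in DMEM/F12 or RPMI with 10% FBS were plated in 1536-well plates, held 24 hours at 37°C, 5% CO2, then given two-drug dose matrices for 72 hours (DMSO typically 0.2%). Viability was read by CellTiter-Glo 2.0 luminescence and scaled as inhibition from 0 (vehicle wells) to 1 (blank wells). Combination Emax is the second-highest inhibition in the matrix; Bliss excess is observed combination effect minus expected EA + EB − EA·EB, EA and EB being single-agent effects.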

[1] = tested on: AMO-1 (Plasma Cell Myeloma)
Procedure, shortened: as §1

[2] = tested on: BT-549 (Breast Carcinoma)
Procedure, shortened: as §1

[3] = tested on: Ca9-22 (Head and Neck Carcinoma)
Procedure, shortened: as §1

[4] = tested on: Caov-4 (Ovarian Carcinoma)
Procedure, shortened: as §1

D-263MG (Glioblastoma) = tested on: D-263MG (Glioblastoma)
Procedure, shortened: as §1

EW-24 (Ewing's Sarcoma) = tested on: EW-24 (Ewing's Sarcoma)
Procedure, shortened: as §1

[5] = tested on: EoL-1-cell (Acute Myeloid Leukemia)
Procedure, shortened: as §1

[6] = tested on: KARPAS-299 (T-Cell Non-Hodgkin's Lymphoma)
Procedure, shortened: as §1

[7] = tested on: KYSE-450 (Esophageal Squamous Cell Carcinoma)
Procedure, shortened: as §1

[8] = tested on: MIA-PaCa-2 (Pancreatic Carcinoma)
Procedure, shortened: as §1

[9] = tested on: MLMA (Other Blood Carcinomas)
Procedure, shortened: as §1

NB69 (Neuroblastoma) = tested on: NB69 (Neuroblastoma)
Procedure, shortened: as §1

[10] = tested on: NCI-H358 (Lung Adenocarcinoma)
Procedure, shortened: as §1

[11] = tested on: PANC-04-03 (Pancreatic Carcinoma)
Procedure, shortened: as §1

[12] = tested on: RF-48 (B-Cell Non-Hodgkin's Lymphoma)
Procedure, shortened: as §1

[13] = tested on: SW13 (Other Solid Carcinomas)
Procedure, shortened: as §1

TGW (Neuroblastoma) = tested on: TGW (Neuroblastoma)
Procedure, shortened: as §1

TK10 (Kidney Carcinoma) = tested on: TK10 (Kidney Carcinoma)
Procedure, shortened: as §1

YH-13 (Glioblastoma) = tested on: YH-13 (Glioblastoma)
Procedure, shortened: as §1

| Structure (SMILES) | combination Emax (ACHN (Kidney Carcinoma)) | combination Emax [1] | combination Emax [2] | combination Emax [3] | combination Emax [4] | combination Emax (D-263MG (Glioblastoma)) | combination Emax (EW-24 (Ewing's Sarcoma)) | combination Emax [5] | combination Emax [6] | combination Emax [7] | combination Emax [8] | combination Emax [9] | combination Emax (NB69 (Neuroblastoma)) | combination Emax [10] | combination Emax [11] | combination Emax [12] | combination Emax [13] | combination Emax (TGW (Neuroblastoma)) | combination Emax (TK10 (Kidney Carcinoma)) | combination Emax (YH-13 (Glioblastoma)) |
| --- | --- | --- | --- | --- | --- | --- | --- | --- | --- | --- | --- | --- | --- | --- | --- | --- | --- | --- | --- | --- |
| CN(CCO)CC[C@H](CSc1ccccc1)Nc1ccc(S(=O)(=O)NC(=O)c2ccc(N3CCC([C@@H](O)c4ccccc4-c4ccc(Cl)cc4)CC3)cc2)cc1S(=O)(=O)C(F)(F)F [AZD4320] + C1CN(CCC1(C(=O)N[C@@H](CCO)C2=CC=C(C=C2)Cl)N)C3=NC=NC4=C3C=CN4 [Capivasertib] (first compound max 1 µM, 7x7, partner max 3 µM) | 0.121 | 0.317 | 0.294 | 0.301 | 0.131 | 0.0907 | 0.869 | 1 | 0.0749 | 0.199 | 0.133 | 0.384 | 0.652 | 0.273 | 0.178 | 0.817 | 0.138 | 0.924 | 0.39 | 0.266 |
| CN(CCO)CC[C@H](CSc1ccccc1)Nc1ccc(S(=O)(=O)NC(=O)c2ccc(N3CCC([C@@H](O)c4ccccc4-c4ccc(Cl)cc4)CC3)cc2)cc1S(=O)(=O)C(F)(F)F [AZD4320] + C=CCn1c(=O)c2cnc(Nc3ccc(N4CCN(C)CC4)cc3)nc2n1-c1cccc(C(C)(C)O)n1 [AZD1775] (first compound max 1 µM, partner max 1 µM) | 0.986 | 0.732 | 0.751 | 0.851 | 0.857 | 0.381 | 0.913 | 1 | 0.938 | 0.64 | 0.6 | 0.994 | 0.952 | 0.498 | 0.486 | 0.885 | 0.167 | 1 | 0.571 | 0.449 |
| CN(CCO)CC[C@H](CSc1ccccc1)Nc1ccc(S(=O)(=O)NC(=O)c2ccc(N3CCC([C@@H](O)c4ccccc4-c4ccc(Cl)cc4)CC3)cc2)cc1S(=O)(=O)C(F)(F)F [AZD4320] + CC(=O)O[C@H]1C(=O)[C@@]2(C)[C@H]([C@H](OC(=O)c3ccccc3)[C@]3(O)C[C@H](OC(=O)[C@H](O)[C@@H](NC(=O)c4ccccc4)c4ccccc4)C(C)=C1C3(C)C)[C@]1(OC(C)=O)CO[C@@H]1C[C@@H]2O [Paclitaxel] (first compound max 1 µM, 7x7, partner max 3 µM) | 0.71 | 1 | 0.853 | 0.997 | 0.795 | 0.95 | 0.968 | 1 | 0.837 | 0.875 | 0.898 |  | 1 | 0.916 | 0.585 | 0.989 | 1 | 1 | 0.821 | 1 |
| CN(CCO)CC[C@H](CSc1ccccc1)Nc1ccc(S(=O)(=O)NC(=O)c2ccc(N3CCC([C@@H](O)c4ccccc4-c4ccc(Cl)cc4)CC3)cc2)cc1S(=O)(=O)C(F)(F)F [AZD4320] + CCN(CCO)CCCOc1ccc2c(Nc3cc(CC(=O)Nc4cccc(F)c4)[nH]n3)ncnc2c1 [AZD2811] (first compound max 1 µM, 7x7, partner max 1 µM) | 0.207 | 0.291 | 0.432 | 0.572 | 0.448 | 0.653 | 0.865 | 1 | 0.191 | 0.153 | 0.512 | 0.228 | 0.902 | 0.269 | 0.138 | 0.881 | 0.378 | 0.928 | 0.439 | 0.704 |
| CN(CCO)CC[C@H](CSc1ccccc1)Nc1ccc(S(=O)(=O)NC(=O)c2ccc(N3CCC([C@@H](O)c4ccccc4-c4ccc(Cl)cc4)CC3)cc2)cc1S(=O)(=O)C(F)(F)F [AZD4320] + C[C@@H]1COCCN1C2=NC(=NC(=C2)C3(CC3)[S@](=N)(=O)C)C4=C5C=CNC5=NC=C4 [AZD6738] (first compound max 1 µM, 7x7, partner max 10 µM) | 0.986 | 0.826 | 0.552 | 0.969 | 0.874 | 0.758 | 0.954 | 1 | 0.955 | 0.547 | 0.632 | 0.83 | 0.959 | 0.705 | 0.461 | 0.917 | 0.405 | 0.949 | 0.866 | 0.568 |
| CN(CCO)CC[C@H](CSc1ccccc1)Nc1ccc(S(=O)(=O)NC(=O)c2ccc(N3CCC([C@@H](O)c4ccccc4-c4ccc(Cl)cc4)CC3)cc2)cc1S(=O)(=O)C(F)(F)F [AZD4320] + C[C@@H](Nc1cc(F)cc(F)c1)c1cc(C(=O)N(C)C)cc2c(=O)cc(N3CCOCC3)oc12 [AZD8186] (first compound max 1 µM, 7x7, partner max 3 µM) | 0.252 | 0.244 | 0.456 | 0.648 | 0.461 | 0.38 | 0.921 | 1 | 0.247 | 0.33 | 0.444 | 0.701 | 0.97 | 0.394 | 0.257 | 0.959 | 0.592 | 0.968 | 0.54 | 0.694 |
| CN(CCO)CC[C@H](CSc1ccccc1)Nc1ccc(S(=O)(=O)NC(=O)c2ccc(N3CCC([C@@H](O)c4ccccc4-c4ccc(Cl)cc4)CC3)cc2)cc1S(=O)(=O)C(F)(F)F [AZD4320] + Cc1cc2ncnn2cc1Nc1ncc2c(n1)n(C1CCOCC1)c(=O)n2C [AZD7648] (first compound max 1 µM, 7x7, partner max 10 µM) | 0.162 | 0.216 | 0.178 | 0.163 |  | 0.108 | 0.851 | 1 | 0.221 | 0.111 | 0.178 | 0.474 | 0.801 | 0.186 | 0.229 | 0.809 | 0.193 | 0.979 | 0.444 | 0.227 |
| CN(CCO)CC[C@H](CSc1ccccc1)Nc1ccc(S(=O)(=O)NC(=O)c2ccc(N3CCC([C@@H](O)c4ccccc4-c4ccc(Cl)cc4)CC3)cc2)cc1S(=O)(=O)C(F)(F)F [AZD4320] + Cn1cnc2c(F)c(Nc3ccc(Br)cc3Cl)c(C(=O)NOCCO)cc21 [Selumetinib] (first compound max 1 µM, 7x7, partner max 3 µM) | 0.346 | 0.418 | 0.327 | 0.593 | 0.617 | 0.237 | 0.892 | 1 | 0.307 | 0.386 | 0.61 | 0.496 | 0.998 | 0.564 | 0.406 | 0.951 | 0.544 | 0.97 | 0.402 | 0.511 |
| CN(CCO)CC[C@H](CSc1ccccc1)Nc1ccc(S(=O)(=O)NC(=O)c2ccc(N3CCC([C@@H](O)c4ccccc4-c4ccc(Cl)cc4)CC3)cc2)cc1S(=O)(=O)C(F)(F)F [AZD4320] + Nc1ccn([C@@H]2O[C@H](CO)[C@@H](O)C2(F)F)c(=O)n1 [Gemcitabine] (first compound max 1 µM, 7x7, partner max 0.3 µM) | 0.969 | 0.953 | 0.199 | 0.927 | 0.685 | 0.363 | 0.98 | 1 | 0.812 | 0.202 | 0.771 | 0.896 | 0.997 | 0.396 | 0.461 | 0.955 | 0.927 | 0.934 | 0.301 | 0.852 |
| Cc1cc2ncnn2cc1Nc1ncc2c(n1)n(C1CCOCC1)c(=O)n2C [AZD7648] + C=CCn1c(=O)c2cnc(Nc3ccc(N4CCN(C)CC4)cc3)nc2n1-c1cccc(C(C)(C)O)n1 [AZD1775] (first compound max 10 µM, partner max 1 µM) | 0.893 | 0.755 | 0.679 | 0.734 | 0.922 | 0.392 | 0.458 | 0.978 | 0.927 | 0.638 | 0.558 | 0.89 | 0.887 | 0.524 | 0.555 | 0.532 | 0.329 | 0.732 | 0.63 | 0.449 |
| Cc1cc2ncnn2cc1Nc1ncc2c(n1)n(C1CCOCC1)c(=O)n2C [AZD7648] + CCN(CCO)CCCOc1ccc2c(Nc3cc(CC(=O)Nc4cccc(F)c4)[nH]n3)ncnc2c1 [AZD2811] (first compound max 10 µM, 7x7, partner max 1 µM) | 0.329 | 0.469 | 0.361 | 0.3 | 0.445 | 0.473 | 0.45 | 0.984 | 0.326 | 0.343 | 0.516 | 0.351 | 0.655 | 0.326 | 0.284 | 0.303 | 0.506 | 0.351 | 0.42 | 0.482 |
